The source of these data is patent publication US9751861B2, “N1-(3,3,3-trifluoro-2-hydroxo-2-methylpropionyl)-piperidine derivatives as inhibitors of pyruvate dehydrogenase kinase” (MERCK PATENT GMBH, priority 2013, dated 2017).

Broadly, the IC50 is the concentration that gives 50% inhibition. A word on the Kd: it is the concentration at which binding is half-saturated. A higher Kd goes with weaker binding.

In one experiment the target is T1, PDHK2 (Homo sapiens, UniProt Q15119).
T1 construct: purchased Carna Bioscience
Kind of experiment: Biochemical activity testing of PDHK2: PDC inactivation assay. The conditions noted are these: human rec PDHK2, PDC from porcine heart, ATP 5 μM; read-out: IC50 PDHK2 (enzyme assay). The text has this: Biochemical Activity Testing of PDHK2: PDC Inactivation Assay
The biochemical activity assay for PDHK2 is based on the inactivation of PDC through phosphorylation by PDHK2. The assay is run in two steps: the enzymatic PDHK2 reaction in which isolated PDC is phosphorylated by PDHK2 with ATP as co-substrate and the PDC activity assay in which pyruvate and NAD are converted to acetyl-CoA and NADH. The PDC activity correlates to the increase in NADH and thereby is detectable directly via the increasing fluorescence signal (Exc 340 nm, Em 450 nm). Inhibition of PDHK2 results in a lower phosphorylation status and thereby a less decrease in activity of PDC and a stronger increase in NADH fluorescence signal.
The PDC inactivation assay is performed in Greiner 384-well microtiter plates and is used for high throughput screen. 4 μl of PDHK2 (human, rec, Carna Bioscience, 10 ng/μl-137 nM final concentration) and PDC (isolated from porcine heart, Sigma-Aldrich, 20 mU/ml final concentration) are incubated in the absence or presence of the test compound (10 dilution concentrations) for 30 min at room temperature in kinase buffer (15 mM potassium phosphate buffer, pH 7.0, 60 mM KCl, 1.5 mM DTT, 2.5 mM MgCl2, 0.0125% (w/v) BSA, 0.125% Pluronic F-68). The kinase reaction is started by the addition of 4 μl ATP substrate solution (fc 5 μM in kinase buffer). After 30 min incubation at 37° C. 40 μl of PDC reaction solution (100 mM Tris/HCl, pH 7.8, 0.5 mM EDTA, 1 mM MgCl2, 50 mM NaF, 0.25 mM Coenzyme A, 5 mM pyruvate, 1 mM NAD, 5 mM DTT, […] thiamine pyrophosphate) is added. The first fluorescence measurement is performed on a Perkin Elmer Envision (Exc 340 nm, Em 450 nm). The reaction is incubated for 45 min at room temperature. Afterwards a second fluorescence measurement is performed and the PDC activity is calculated by the difference between both measurements. As full value for the PDHK2 assay the inhibitor-free PDHK2 reaction is used. The pharmacological zero value used is DCA (Sigma-Aldrich) in a final concentration of 3 mM. The inhibitory values (IC50) were determined using either the program Symyx Assay Explorer® or Condosseo® from GeneData.
For the molecule `C[C@@](O)(C(=O)N1CCC(c2ccn(-c3ccc(Cl)cn3)n2)CC1)C(F)(F)F` [Compound A29, (R)-1-{4-[1-(5-Chloro-pyridin-2-yl)-1H-pyrazol-3-yl]-piperidin-1-yl}-3,3,3-trifluoro-2-hydroxy-2-methyl-propan-1-one], the IC50 lay in the range of 0.3 to 3 µM. The same measure, in the same setting: the result for `Cc1cc(C2CCN(C(=O)[C@@](C)(O)C(F)(F)F)CC2)nn1-c1ccc(Cl)cc1` [Compound A34, (R)-1-{4-[1-(4-Chloro-phenyl)-5-methyl-1H-pyrazol-3-yl]-piperidin-1-yl}-3,3,3-trifluoro-2-hydroxy-2-methyl-propan-1-one] reads 0.3 to 3 µM. With `Cc1cc(C2CCN(C(=O)[C@@](C)(O)C(F)(F)F)CC2)nn1-c1ccc(F)cc1` [Compound A40, (R)-1-{4-[1-(4-Fluoro-phenyl)-5-methyl-1H-pyrazol-3-yl]-piperidin-1-yl}-3,3,3-trifluoro-2-hydroxy-2-methyl-propan-1-one], the IC50 was in the range of 0.3 to 3 µM.

Turning to `C[C@H]1CN(C(=O)[C@@](C)(O)C(F)(F)F)CC[C@H]1c1ccn(-c2ccc(F)cc2)n1` [Compound A45, (R)-3,3,3-Trifluoro-1-{(3R,4R)-4-[1-(4-fluoro-phenyl)-1H-pyrazol-3-yl]-3-methyl-piperidin-1-yl}-2-hydroxy-2-methyl-propan-1-one], the half-inhibitory concentration (IC50) lay within 3 to 50 µM. Take `Cc1cc(C2CCN(C(=O)[C@@](C)(O)C(F)(F)F)CC2)nn1-c1ccccc1` [Compound A47, (R)-1-[4-(5-Methyl-1-phenyl-1H-pyrazol-3-yl)-piperidin-1-yl]-3,3,3-trifluoro-2-hydroxy-2-methyl-propan-1-one]: the half-maximal inhibitory concentration (IC50) is 3 to 50 µM. Still for that read-out and setting: the result for `Cc1cc(C2CCN(C(=O)[C@@](C)(O)C(F)(F)F)CC2)n(-c2ccc(Cl)cc2)n1` [Compound A50, (R)-1-{4-[2-(4-Chloro-phenyl)-5-methyl-2H-pyrazol-3-yl]-piperidin-1-yl}-3,3,3-trifluoro-2-hydroxy-2-methyl-propan-1-one] reads less than 0.3 µM.

For the molecule `C[C@@](O)(C(=O)N1CCC(c2ccnn2C2CCCC2)CC1)C(F)(F)F` [Compound A51, (R)-1-[4-(2-Cyclopentyl-2H-pyrazol-3-yl)-piperidin-1-yl]-3,3,3-trifluoro-2-hydroxy-2-methyl-propan-1-one], the IC50 lay in the range of 0.3 to 3 µM.

On to `Cn1nccc1C1CCN(C(=O)[C@@](C)(O)C(F)(F)F)CC1` [Compound A52, (R)-3,3,3-Trifluoro-2-hydroxy-2-methyl-1-[4-(2-methyl-2H-pyrazol-3-yl)piperidin-1-yl]-propan-1-one], for which the half-inhibitory concentration (IC50) fell in the range of 0.3 to 3 µM. The same measure, in the same setting: next, `Cc1ccc(-n2nncc2C2CCN(C(=O)[C@@](C)(O)C(F)(F)F)CC2)cc1` [Compound A59, (R)-3,3,3-Trifluoro-2-hydroxy-2-methyl-1-[4-(3-p-tolyl-3 H-[1,2,3]triazol-4-yl)piperidin-1-yl]-propan-1-one]: 0.3 to 3 µM. Same read-out and setting: next, `C[C@@](O)(C(=O)N1CCC(c2nccn2-c2ccc(Cl)cc2)CC1)C(F)(F)F` [Compound A69, (R)-1-{4-[1-(4-Chloro-phenyl)-1H-imidazol-2-yl]-piperidin-1-yl}-3,3,3-trifluoro-2-hydroxy-2-methyl-propan-1-one]: 0.3 to 3 µM. In the case of `C[C@@](O)(C(=O)N1CCC(c2nncn2-c2ccc(Cl)cc2)CC1)C(F)(F)F` [Compound A73, (R)-1-{4-[4-(4-Chloro-phenyl)-4H-[1,2,4]triazol-3-yl]-piperidin-1-yl}-3,3,3-trifluoro-2-hydroxy-2-methyl-propan-1-one], the concentration for half-maximal inhibition (IC50) was 0.3 to 3 µM. Regarding `CN1CCC(n2nccc2C2CCN(C(=O)[C@@](C)(O)C(F)(F)F)CC2)CC1` [Compound A75, (R)-3,3,3-Trifluoro-2-hydroxy-2-methyl-1-{4-[2-(1-methyl-piperidin-4-yl)-2H-pyrazol-3-yl]-piperidin-1-yl}-propan-1-one], the 50% inhibitory concentration (IC50) was 3 to 50 µM. As for `CC(C)Cn1nccc1C1CCN(C(=O)[C@@](C)(O)C(F)(F)F)CC1` [Compound A76, (R)-3,3,3-Trifluoro-2-hydroxy-1-[4-(2-isobutyl-1H-pyrazol-3-yl)-1-piperidyl]-2-methyl-propan-1-one], the IC50 lay in the range of 3 to 50 µM. Same read-out and setting: the result for `C[C@@](O)(C(=O)N1CCC(c2ccnn2-c2ccc(C#N)nc2)CC1)C(F)(F)F` [Compound A81, 5-{5-[1-((R)-3,3,3-Trifluoro-2-hydroxy-2-methyl-propionyl)-piperidin-4-yl]-pyrazol-1-yl}-pyridine-2-carbonitrile] reads 0.3 to 3 µM; that for `C[C@@](O)(C(=O)N1CCC(c2ccnn2-c2ccc(C(F)(F)F)cn2)CC1)C(F)(F)F` [Compound A84, (R)-3,3,3-Trifluoro-2-hydroxy-2-methyl-1-{4-[2-(5-trifluoromethyl-pyridin-2-yl)-2H-pyrazol-3-yl]-piperidin-1-yl}-propan-1-one], 0.3 to 3 µM; that for `C[C@@](O)(C(=O)N1CCC(c2ccnn2-c2ccccc2C(F)(F)F)CC1)C(F)(F)F` [Compound A89, (R)-3,3,3-Trifluoro-2-hydroxy-2-methyl-1-[4-[2-[2-(trifluoromethyl)phenyl]-2H-pyrazol-3-yl]-1-piperidyl]propan-1-one], 0.3 to 3 µM.

With `COc1cc(F)ccc1-n1nccc1C1CCN(C(=O)[C@@](C)(O)C(F)(F)F)CC1` [Compound A90, (R)-3,3,3-Trifluoro-1-{4-[2-(4-fluoro-2-methoxy-phenyl)-2H-pyrazol-3-yl]-piperidin-1-yl}-2-hydroxy-2-methyl-propan-1-one], the half-inhibitory concentration (IC50) was 0.3 to 3 µM. The same measure, in the same setting: next, `Cn1ccc(C2CCN(C(=O)[C@@](C)(O)C(F)(F)F)CC2)n1` [Compound A99, (R)-3,3,3-Trifluoro-2-hydroxy-2-methyl-1-[4-(1-methyl-1H-pyrazol-3-yl)piperidin-1-yl]-propan-1-one]: 3 to 50 µM; `C[C@@](O)(C(=O)N1CCC(c2ccn(-c3ncc(Cl)cn3)n2)CC1)C(F)(F)F` [Compound A103, (R)-1-{4-[1-(5-Chloro-pyrimidin-2-yl)-1H-pyrazol-3-yl]-piperidin-1-yl}-3,3,3-trifluoro-2-hydroxy-2-methyl-propan-1-one]: 3 to 50 µM. Same read-out and setting: next, `C[C@@](O)(C(=O)N1CCC(c2ccn[nH]2)CC1)C(F)(F)F` [Compound A104, (R)-3,3,3-Trifluoro-2-hydroxy-2-methyl-1-[4-(2H-pyrazol-3-yl)-piperidin-1-yl]-propan-1-one]: 3 to 50 µM. Still for that read-out and setting: next, `C[C@@](O)(C(=O)N1CCC(c2ccn(-c3ncc(F)cc3F)n2)CC1)C(F)(F)F` [Compound A109, (R)-1-{4-[1-(3,5-Difluoro-pyridin-2-yl)-1H-pyrazol-3-yl]-piperidin-1-yl}-3,3,3-trifluoro-2-hydroxy-2-methyl-propan-1-one]: 0.3 to 3 µM; `CC(C)Cn1ccc(C2CCN(C(=O)[C@@](C)(O)C(F)(F)F)CC2)n1` [Compound A114, (R)-3,3,3-Trifluoro-2-hydroxy-1-[4-(1-isobutyl-1H-pyrazol-3-yl)-piperidin-1-yl]-2-methyl-propan-1-one]: 0.3 to 3 µM.

The next experiment deals with T2, human PDHK2 (12-407) (Homo sapiens, UniProt Q15119).
T2 construct: The human PDHK2 (12-407) was produced in E. coli; His-tag (cleaved yes); made in house; host or cells: E. coli
Kind of experiment: Isothermal titration calorimetry (ITC) binding. Conditions: 30° C., pH 7.5. The protocol:
Isothermal Titration Calorimetry
ITC measurements were performed with a VP-ITC micro calorimeter (Microcal, LLC/GE Healthcare Bio-Sciences AB, Uppsala, Sweden). In general titrations were performed by titrating the protein (50 μM) to the test compound (5 μM) in 12 μl injections. All binding experiments were carried out at 30° C. In general the test compounds were diluted form DMSO stock solutions into the measurement buffer with a maximum final concentration of 1% DMSO. The measurement buffer was 20 mM HEPES, 135 mM KCl, 1 mM TCEP, 2 mM MgCl2, 15 mM NaH2PO4, pH 7.5. The human PDHK2 (12-407) was produced in E. coli as his-tagged protein and purified by affinity chromatography. The tag was removed by side specific proteolysis. Before titration the protein buffer was changed to the measurement buffer containing the same DMSO concentration as the test compound dilution. ITC data analysis was performed using Origin 7 calorimetry software from the same supplier. For most measurements a binding model of one binding site was assumed. According to the applied mathematical model it is possible to calculate the binding constant (KA), the observed binding enthalpy (ΔH^obs) as well as the stoichiometry (N) of the formed complex. Preceding analysis the raw data was corrected for the heats of dilution by extrapolating from the saturation value from the end of titration. In order to allow for direct comparison between the respective experimental series and protein preparations the protein concentration was corrected by referencing titrations to a well behaved standard inhibitor. The apparent stoichiometry values defined the fraction of binding competent protein and compensated for relative errors in protein concentration measurements. This corrected protein concentration was used to set up ITC experiment series with test compounds. Any deviations from ideal 1:1 stoichiometry observed here were attributed to errors in compound concentration. This nominal compound concentration was corrected as well to achieve 1:1 stoichiometry in the fit.
(Isothermal titration calorimetry measures the heat released or taken up as one component is titrated into another.)
On to `C[C@@](O)(C(=O)N1CCC(c2ccn(-c3ccc(Cl)cn3)n2)CC1)C(F)(F)F` [Compound A29, (R)-1-{4-[1-(5-Chloro-pyridin-2-yl)-1H-pyrazol-3-yl]-piperidin-1-yl}-3,3,3-trifluoro-2-hydroxy-2-methyl-propan-1-one], for which the Kd was in the range of 300 to 3000 nM. Same read-out and setting: the result for `Cc1cc(C2CCN(C(=O)[C@@](C)(O)C(F)(F)F)CC2)nn1-c1ccc(Cl)cc1` [Compound A34, (R)-1-{4-[1-(4-Chloro-phenyl)-5-methyl-1H-pyrazol-3-yl]-piperidin-1-yl}-3,3,3-trifluoro-2-hydroxy-2-methyl-propan-1-one] reads 300 to 3000 nM.

`Cc1cc(C2CCN(C(=O)[C@@](C)(O)C(F)(F)F)CC2)n(-c2ccc(Cl)cc2)n1` [Compound A50, (R)-1-{4-[2-(4-Chloro-phenyl)-5-methyl-2H-pyrazol-3-yl]-piperidin-1-yl}-3,3,3-trifluoro-2-hydroxy-2-methyl-propan-1-one] registered a dissociation constant (Kd) of less than 300 nM. The same measure, in the same setting: the result for `Cn1nccc1C1CCN(C(=O)[C@@](C)(O)C(F)(F)F)CC1` [Compound A52, (R)-3,3,3-Trifluoro-2-hydroxy-2-methyl-1-[4-(2-methyl-2H-pyrazol-3-yl)piperidin-1-yl]-propan-1-one] reads 300 to 3000 nM.
